Experimental data taken from the CheMixHub viscosity set.

Assay: xn = mol fraction of the nth substance listed

Nc1cccc2ccccc12 + CCO
viscosity [mPa·s], 101 kPa
Settings	x1 = 0.0225	x1 = 0.04399	x1 = 0.08427	x1 = 0.1213	x1 = 0.1554	x1 = 0.187	x1 = 0.2163
293.15 K	1.348	1.454	1.7	1.987	2.308	2.667	3.025
303.15 K	1.094	1.176	1.362	1.56	1.786	2.029	2.27
313.15 K	0.903	0.966	1.104	1.251	1.41	1.587	1.759
323.15 K	0.745	0.791	0.899	1.006	1.121	1.254	1.377

CCCOCCO + CN1CCCC1=O
298.15 K, 101 kPa
Settings	viscosity [mPa·s]
x1 = 0.0057	1.693
x1 = 0.0142	1.702
x1 = 0.0273	1.719
x1 = 0.0609	1.756
x1 = 0.1004	1.803
x1 = 0.1386	1.847
x1 = 0.1786	1.891
x1 = 0.2186	1.94
x1 = 0.2578	1.996
x1 = 0.2966	2.038
x1 = 0.3343	2.078
x1 = 0.3852	2.132
x1 = 0.4436	2.186
x1 = 0.5011	2.244
x1 = 0.5422	2.28
x1 = 0.6093	2.311
x1 = 0.6638	2.343
x1 = 0.7673	2.355
x1 = 0.8387	2.365
x1 = 0.8702	2.362
x1 = 0.9445	2.359
x1 = 0.976	2.354

CCCCn1cc[n+](C)c1.[Cl-] + CN(C)C=O
101 kPa
Settings	viscosity [mPa·s]
293.15 K, x2 = 0.5025	76.7
293.15 K, x2 = 0.9	3.41
298.15 K, x2 = 0.501	64.4
303.15 K, x2 = 0.7005	9.55
308.15 K, x1 = 0.1056	1.665
308.15 K, x1 = 0.1399	2.135
308.15 K, x2 = 0.7	7.76

CCCOCCO + CN(C)C=O
298.15 K, 101 kPa
Settings	viscosity [mPa·s]
x1 = 0.0076	0.821
x1 = 0.0172	0.834
x1 = 0.029	0.846
x1 = 0.0502	0.874
x1 = 0.1029	0.948
x1 = 0.1416	0.998
x1 = 0.1927	1.07
x1 = 0.264	1.18
x1 = 0.2944	1.223
x1 = 0.3428	1.289
x1 = 0.3521	1.305
x1 = 0.4414	1.458
x1 = 0.5181	1.582
x1 = 0.5987	1.726
x1 = 0.6457	1.809
x1 = 0.6982	1.895
x1 = 0.7555	1.989
x1 = 0.8533	2.164
x1 = 0.9398	2.308
x1 = 0.9729	2.345

CCCCn1cc[n+](C)c1.[Cl-] + CO
101 kPa
Settings	viscosity [mPa·s]
293.15 K, x2 = 0.5001	65.2
293.15 K, x2 = 0.7002	8.41
298.15 K, x2 = 0.7015	7.51
308.15 K, x2 = 0.7001	6.61

CCCOCCO + CO
298.15 K, 101.33 kPa
Settings	viscosity [mPa·s]
x1 = 0.0024	0.553
x1 = 0.0177	0.581
x1 = 0.041	0.62
x1 = 0.0504	0.644
x1 = 0.0697	0.673
x1 = 0.0903	0.729
x1 = 0.1252	0.801
x1 = 0.159	0.865
x1 = 0.1826	0.914
x1 = 0.2208	0.989
x1 = 0.2613	1.084
x1 = 0.2874	1.149
x1 = 0.3049	1.199
x1 = 0.341	1.284
x1 = 0.3895	1.394
x1 = 0.4426	1.499
x1 = 0.4816	1.577
x1 = 0.5329	1.68
x1 = 0.5596	1.737
x1 = 0.6366	1.878
x1 = 0.6677	1.927
x1 = 0.7153	2.014
x1 = 0.7701	2.115
x1 = 0.8053	2.16
x1 = 0.8437	2.194
x1 = 0.8812	2.248
x1 = 0.9415	2.323
x2 = 0.0116	2.347

N#Cc1ccccc1 + CO
Settings	viscosity [mPa·s]
303 K, 100 kPa, x1 = 0.0991	0.6312
303 K, 100 kPa, x1 = 0.2405	0.7232
303 K, 100 kPa, x1 = 0.3585	0.7886
303 K, 100 kPa, x1 = 0.4974	0.8399
303 K, 100 kPa, x1 = 0.6272	0.9121
303 K, 100 kPa, x1 = 0.7094	0.9522
303 K, 100 kPa, x1 = 0.8023	0.9912
303 K, 100 kPa, x1 = 0.897	1.035
303.15 K, 101.33 kPa, x1 = 0.0854	0.562
303.15 K, 101.33 kPa, x1 = 0.1569	0.603
303.15 K, 101.33 kPa, x1 = 0.2408	0.652
303.15 K, 101.33 kPa, x1 = 0.4349	0.763
303.15 K, 101.33 kPa, x1 = 0.5335	0.82
303.15 K, 101.33 kPa, x1 = 0.6304	0.875
303.15 K, 101.33 kPa, x1 = 0.7155	0.926
303.15 K, 101.33 kPa, x1 = 0.8439	1.011
303.15 K, 101.33 kPa, x1 = 0.9059	1.061
308 K, 100 kPa, x1 = 0.0991	0.5712
308 K, 100 kPa, x1 = 0.2405	0.6523
308 K, 100 kPa, x1 = 0.3585	0.7123
308 K, 100 kPa, x1 = 0.4974	0.7652
308 K, 100 kPa, x1 = 0.6272	0.8012
308 K, 100 kPa, x1 = 0.7094	0.8307
308 K, 100 kPa, x1 = 0.8023	0.8716
308 K, 100 kPa, x1 = 0.897	0.9146
308.15 K, 101.33 kPa, x1 = 0.0854	0.525
308.15 K, 101.33 kPa, x1 = 0.1569	0.562
308.15 K, 101.33 kPa, x1 = 0.2408	0.608
308.15 K, 101.33 kPa, x1 = 0.4349	0.709
308.15 K, 101.33 kPa, x1 = 0.5335	0.761
308.15 K, 101.33 kPa, x1 = 0.6304	0.811
308.15 K, 101.33 kPa, x1 = 0.7155	0.859
308.15 K, 101.33 kPa, x1 = 0.8439	0.938
308.15 K, 101.33 kPa, x1 = 0.9059	0.985
313 K, 100 kPa, x1 = 0.0991	0.5056
313 K, 100 kPa, x1 = 0.2405	0.5595
313 K, 100 kPa, x1 = 0.3585	0.6235
313 K, 100 kPa, x1 = 0.4974	0.6856
313 K, 100 kPa, x1 = 0.6272	0.7325
313 K, 100 kPa, x1 = 0.7094	0.7731
313 K, 100 kPa, x1 = 0.8023	0.8134
313 K, 100 kPa, x1 = 0.897	0.8658

N#Cc1ccccc1 + COC(C)(C)C
viscosity [mPa·s], 101.33 kPa
Settings	x2 = 0.1048	x2 = 0.2024	x2 = 0.3015	x2 = 0.3969	x2 = 0.4912	x2 = 0.6055	x2 = 0.7115	x2 = 0.7995	x2 = 0.905
293.15 K	1.277	1.18	1.081	0.9863	0.8924	0.7787	0.6732	0.5856	0.4806
298.15 K	1.185	1.096	1.006	0.9189	0.8329	0.7286	0.6319	0.5516	0.4554

N#Cc1ccccc1 + COc1ccccc1
viscosity [mPa·s], 101.33 kPa
Settings	x2 = 0.0923	x2 = 0.1792	x2 = 0.2764	x2 = 0.3719	x2 = 0.4735	x2 = 0.6068	x2 = 0.7036	x2 = 0.808	x2 = 0.8989
293.15 K	1.315	1.3	1.27	1.235	1.191	1.164	1.149	1.134	1.119
298.15 K	1.226	1.201	1.181	1.142	1.122	1.088	1.079	1.056	1.036
